# In ChEMBL document CHEMBL3232739, “Discovery of a potent and dissociated non-steroidal glucocorticoid receptor agonist containing an alkyl carbinol pharmacophore” (Bioorg Med Chem Lett, 2014):
# Key:
# [1] = target: T1, Progesterone receptor (Homo sapiens, UniProt P06401); experiment: Displacement of TAMRA-labeled mifepristone from progesterone receptor (unknown origin) by fluorescence polarization assay
# T1 sequence (P06401 whole entry): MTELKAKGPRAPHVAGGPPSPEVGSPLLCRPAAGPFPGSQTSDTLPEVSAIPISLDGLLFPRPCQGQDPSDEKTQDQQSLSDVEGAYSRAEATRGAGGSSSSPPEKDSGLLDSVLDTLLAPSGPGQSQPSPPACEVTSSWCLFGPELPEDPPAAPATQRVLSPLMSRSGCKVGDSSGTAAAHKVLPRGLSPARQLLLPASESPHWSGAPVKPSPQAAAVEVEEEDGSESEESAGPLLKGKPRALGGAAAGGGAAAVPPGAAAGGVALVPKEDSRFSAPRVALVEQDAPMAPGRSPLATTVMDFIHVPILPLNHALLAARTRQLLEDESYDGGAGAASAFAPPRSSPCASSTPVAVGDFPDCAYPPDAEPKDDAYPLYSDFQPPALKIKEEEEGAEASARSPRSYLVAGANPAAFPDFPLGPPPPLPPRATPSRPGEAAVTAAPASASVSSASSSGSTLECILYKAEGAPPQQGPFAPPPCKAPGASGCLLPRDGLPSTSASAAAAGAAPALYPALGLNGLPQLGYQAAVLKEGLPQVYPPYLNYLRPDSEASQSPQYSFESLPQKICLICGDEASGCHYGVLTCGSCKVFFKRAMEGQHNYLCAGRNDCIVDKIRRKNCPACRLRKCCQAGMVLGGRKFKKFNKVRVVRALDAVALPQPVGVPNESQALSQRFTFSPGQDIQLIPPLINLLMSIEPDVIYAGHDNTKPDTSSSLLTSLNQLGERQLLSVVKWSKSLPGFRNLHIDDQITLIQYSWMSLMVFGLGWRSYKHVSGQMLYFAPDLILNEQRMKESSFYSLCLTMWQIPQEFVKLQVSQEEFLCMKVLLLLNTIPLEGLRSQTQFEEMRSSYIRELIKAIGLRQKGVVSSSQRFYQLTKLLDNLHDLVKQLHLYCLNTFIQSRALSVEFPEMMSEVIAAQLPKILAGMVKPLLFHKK
# [2] = target: T2, Mineralocorticoid receptor (Homo sapiens, UniProt P08235); experiment: Displacement of TAMRA-labeled dexamethasone from mineralocorticoid receptor (unknown origin) by fluorescence polarization assay
# T2 sequence (P08235 whole entry): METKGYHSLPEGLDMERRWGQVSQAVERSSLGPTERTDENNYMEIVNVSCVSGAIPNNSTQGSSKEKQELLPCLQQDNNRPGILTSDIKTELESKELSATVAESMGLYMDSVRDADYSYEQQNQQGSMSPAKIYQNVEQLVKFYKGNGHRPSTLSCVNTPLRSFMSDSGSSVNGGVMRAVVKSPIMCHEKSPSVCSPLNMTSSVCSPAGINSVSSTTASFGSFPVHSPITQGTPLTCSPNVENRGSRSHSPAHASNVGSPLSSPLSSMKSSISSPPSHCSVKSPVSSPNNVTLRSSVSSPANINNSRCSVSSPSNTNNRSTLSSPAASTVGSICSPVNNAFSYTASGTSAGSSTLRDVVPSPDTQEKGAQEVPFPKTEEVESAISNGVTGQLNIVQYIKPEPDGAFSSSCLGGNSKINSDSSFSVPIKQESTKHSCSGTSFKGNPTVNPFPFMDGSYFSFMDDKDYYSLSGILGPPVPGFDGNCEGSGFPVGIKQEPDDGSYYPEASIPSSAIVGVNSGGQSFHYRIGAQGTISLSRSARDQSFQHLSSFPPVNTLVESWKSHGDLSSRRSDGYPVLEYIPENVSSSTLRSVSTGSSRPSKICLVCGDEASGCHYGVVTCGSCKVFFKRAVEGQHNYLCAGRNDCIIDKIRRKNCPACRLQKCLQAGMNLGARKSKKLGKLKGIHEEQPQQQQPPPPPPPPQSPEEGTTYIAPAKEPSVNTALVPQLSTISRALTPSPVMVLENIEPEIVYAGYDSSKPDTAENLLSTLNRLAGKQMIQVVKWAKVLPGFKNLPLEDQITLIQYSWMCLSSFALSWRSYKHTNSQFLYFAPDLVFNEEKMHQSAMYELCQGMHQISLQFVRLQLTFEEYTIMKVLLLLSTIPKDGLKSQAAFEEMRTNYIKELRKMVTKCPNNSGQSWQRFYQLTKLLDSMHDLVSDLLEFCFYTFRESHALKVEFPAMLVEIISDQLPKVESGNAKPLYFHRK
# [3] = target: T3, Glucocorticoid receptor (Homo sapiens, UniProt P04150); experiment: Transactivation of glucocorticoid receptor in human HeLa cells harboring MMTV promoter at 2 uM by luciferase reporter gene assay relative to dexamethasone; type: cell-based; conditions: read-out: Efficacy
# T3 sequence (P04150 whole entry): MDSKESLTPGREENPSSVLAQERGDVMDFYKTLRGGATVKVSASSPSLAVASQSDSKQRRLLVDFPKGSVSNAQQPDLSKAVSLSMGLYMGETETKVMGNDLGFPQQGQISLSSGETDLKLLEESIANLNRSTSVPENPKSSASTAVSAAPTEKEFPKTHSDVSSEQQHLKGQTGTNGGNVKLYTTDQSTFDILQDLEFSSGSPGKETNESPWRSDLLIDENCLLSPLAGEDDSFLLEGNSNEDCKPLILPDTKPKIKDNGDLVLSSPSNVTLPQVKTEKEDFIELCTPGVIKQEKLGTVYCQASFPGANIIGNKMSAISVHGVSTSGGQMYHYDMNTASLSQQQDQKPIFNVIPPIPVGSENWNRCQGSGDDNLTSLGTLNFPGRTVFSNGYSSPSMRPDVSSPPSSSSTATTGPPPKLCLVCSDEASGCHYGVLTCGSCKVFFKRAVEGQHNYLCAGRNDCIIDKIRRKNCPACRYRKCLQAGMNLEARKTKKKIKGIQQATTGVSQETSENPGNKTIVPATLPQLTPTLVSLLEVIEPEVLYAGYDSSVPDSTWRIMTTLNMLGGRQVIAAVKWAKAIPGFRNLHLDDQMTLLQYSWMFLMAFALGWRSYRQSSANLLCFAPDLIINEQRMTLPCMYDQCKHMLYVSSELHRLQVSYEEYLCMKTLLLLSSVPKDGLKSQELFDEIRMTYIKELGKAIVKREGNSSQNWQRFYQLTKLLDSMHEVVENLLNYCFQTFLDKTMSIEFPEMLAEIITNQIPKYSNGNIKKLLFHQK
# [4] = target: T3, Glucocorticoid receptor
# [5] = target: T3, Glucocorticoid receptor; remark: listed apart in the source
# Description: Agonist activity at glucocorticoid receptor in human foreskin fibroblasts assessed as inhibition of IL-1-induced IL-6 production by trans-repression assay
# [6] = target: T3, Glucocorticoid receptor; remark: listed apart in the source
# Description: Transactivation of glucocorticoid receptor in human HeLa cells harboring MMTV promoter by luciferase reporter gene assay
# [7] = Chemical stability of the compound in aqueous solution at pH 2; type: physicochemical; conditions: buffer
# [8] = species: Homo sapiens; experiment: Selectivity ratio of IC50 for progesterone receptor (unknown origin) to IC50 for glucocorticoid receptor (unknown origin)
# [9] = species: Homo sapiens; experiment: Selectivity ratio of IC50 for mineralocorticoid receptor (unknown origin) to IC50 for glucocorticoid receptor (unknown origin)
# [10] = tested on: Mus musculus; experiment: Antiarthritic activity in B10.RIII mouse collagen/complete Freund's adjuvant-induced arthritis model assessed as reduction of disease score at 30 mg/kg, po qd for 5 weeks relative to control; type: functional; set-up: scale not given: the % may be the effect or the level left
# [11] = tested on: Mus musculus; experiment: Antiinflammatory activity in mouse assessed as inhibition of LPS-induced TNFalpha production at 3 mg/kg, po; type: functional
# [12] = tested on: Mus musculus; experiment: Antiarthritic activity in B10.RIII mouse collagen/complete Freund's adjuvant-induced arthritis model assessed as reduction of disease score at 3 mg/kg, po qd for 5 weeks relative to control; type: functional; set-up: scale not given: the % may be the effect or the level left
# [13] = tested on: Mus musculus; experiment: Toxicity in B10.RIII mouse assessed as body fate level in serum at 30 mg/kg, po qd for 5 weeks relative to control; type: organism-based; set-up: dose 30 mg/kg, route oral; conditions: in vivo, 840 h
# [14] = tested on: Mus musculus; experiment: Toxicity in B10.RIII mouse assessed as body fate level in serum at 3 mg/kg, po qd for 5 weeks relative to control; type: organism-based; set-up: dose 3 mg/kg, route oral; conditions: in vivo, 840 h
# [15] = tested on: Mus musculus; experiment: Toxicity in B10.RIII mouse assessed as triglyceride level in serum at 30 mg/kg, po qd for 5 weeks relative to control; type: organism-based; set-up: dose 30 mg/kg, route oral; conditions: in vivo, 840 h
# [16] = tested on: Mus musculus; experiment: Toxicity in B10.RIII mouse assessed as triglyceride level in serum at 3 mg/kg, po qd for 5 weeks relative to control; type: organism-based; set-up: dose 3 mg/kg, route oral; conditions: in vivo, 840 h
# [17] = tested on: Mus musculus; experiment: Toxicity in B10.RIII mouse assessed as free fatty acid level in serum at 30 mg/kg, po qd for 5 weeks relative to control; type: organism-based; set-up: dose 30 mg/kg, route oral; conditions: in vivo, 840 h
# [18] = tested on: Mus musculus; experiment: Toxicity in B10.RIII mouse assessed as free fatty acid level in serum at 3 mg/kg, po qd for 5 weeks relative to control; type: organism-based; set-up: dose 3 mg/kg, route oral; conditions: in vivo, 840 h
# [19] = tested on: Mus musculus; experiment: Toxicity in B10.RIII mouse assessed as insulin level in serum at 30 mg/kg, po qd for 5 weeks relative to control; type: organism-based; set-up: dose 30 mg/kg, route oral; conditions: in vivo, 840 h
# [20] = tested on: Mus musculus; experiment: Toxicity in B10.RIII mouse assessed as insulin level in serum at 3 mg/kg, po qd for 5 weeks relative to control; type: organism-based; set-up: dose 3 mg/kg, route oral; conditions: in vivo, 840 h
# [21] = Chemical stability of the compound in aqueous solution at pH 2 to 7.4 after 24 hrs; type: physicochemical; conditions: buffer, pH 2, 24 h
SMILES,IC50 [1] [nM],IC50 [2] [nM],IC50 [4] [nM],IC50 [5] [nM],other results
COc1ccc(F)cc1C(C)(C)CC(O)(Cc1cc2cnccc2[nH]1)C1CC1 (centres undefined),> 2000,1800,6,8,Emax at 2 µM [3]: 20%; EC50 [6]: 90 nM
Cc1ccc(F)cc1C(C)(C)CC(O)(Cc1cc2cnccc2[nH]1)C1CC1 (centres undefined),> 2000,1550,9,24,Emax at 2 µM [3]: 11%; Stability [7]: Unstable; EC50 [6]: > 2000 nM
Cc1ccc(F)cc1C(C)(C)C[C@](O)(Cc1cc2cnccc2[nH]1)C(C)(C)C,> 2000,1300,1300,–,–
CCC(C)(C)C(O)(Cc1cc2ccncc2[nH]1)CC(C)(C)c1cc(F)ccc1OC (centres undefined),> 2000,1900,13,> 2000,Ratio IC50 [8]: > 100; Ratio IC50 [9]: > 100
COc1ccc(F)cc1C(C)(C)CC(C)(O)Cc1cc2ccncc2[nH]1 (centres undefined),> 2000,> 2000,230,> 2000,–
COc1ccc(F)cc1C(C)(C)CC(O)(Cc1cc2ccncc2[nH]1)C1CC1 (centres undefined),> 2000,> 2000,15,47,Ratio IC50 [8]: > 100; Ratio IC50 [9]: > 100
COc1ccc(F)cc1C(C)(C)CC(O)(Cc1cc2ccncc2[nH]1)C(C)(C)C (centres undefined),1800,1800,8,36,Ratio IC50 [8]: > 100; Ratio IC50 [9]: > 100
C[C@]12C=CC(=O)C=C1CC[C@@H]1[C@@H]2[C@@H](O)C[C@@]2(C)[C@H]1CC[C@]2(O)C(=O)CO [PREDNISOLONE],–,–,–,–,Activity [10]: -80%; inhibition in vivo at 3 mg/kg [11]: 87%; Activity [12]: -42%; Activity [13]: 53%; Activity [14]: 13%; Activity [15]: 55%; Activity [16]: -11%; Activity [17]: 27%; Activity [18]: 16%; Activity [19]: 187%; Activity [20]: 37%
COc1ccc(F)cc1C(C)(C)CC(O)(Cc1cc2ccncc2[nH]1)C(F)(F)F (centres undefined),> 2000,–,4,10,–
Cc1ccc(F)cc1C(C)(C)CC(O)(Cc1cc2cnccc2[nH]1)C(C)(C)C (racemic),780,720,5,35,Emax at 2 µM [3]: 1%; Stability [7]: Stable; Stability [21]: Stable; EC50 [6]: > 2000 nM
COc1ccc(F)cc1C(C)(C)CC(O)(Cc1cc2ccncc2[nH]1)C1CCC1 (centres undefined),> 2000,> 2000,17,260,–
CCC(O)(Cc1cc2ccncc2[nH]1)CC(C)(C)c1cc(F)ccc1OC (centres undefined),> 2000,> 2000,51,220,–
COc1ccc(F)cc1C(C)(C)CC(O)(Cc1cc2cnccc2[nH]1)C(C)(C)C (centres undefined),790,640,4,9,Emax at 2 µM [3]: 10%; EC50 [6]: > 2000 nM
COc1ccc(F)cc1C(C)(C)CC(O)(Cc1cc2ccncc2[nH]1)C(C)C (centres undefined),> 2000,1000,9,73,Ratio IC50 [8]: > 100; Ratio IC50 [9]: > 100
"COc1ccc(F)cc1C(C)(C)CC(O)(Cc1cc2ccncc2[nH]1)C1CCCC1 (single isomer, unassigned)",> 2000,1100,26,> 2000,–
